{
  "source": "patent US6187938A",
  "about": "“ω-amino acid derivatives, processes of their preparation and their use” (Bochemie, s.r.o., priority 1997, dated 2001)",
  "origin": "cited, not measured here",
  "tested_on": "skin",
  "conditions": "in presence of petrolatum; Stoughton, McClure 1983",
  "data": [
    {"smiles": "CCCCCCCCCCCCN1CCCCCC1=O", "note": "[laurocapram, 1-dodecylazacycloheptan-2-one]", "values": [
      {"measurement": "inhibition of permeation enhancing effect by paraffinic auxiliary substances (e.g., petrolatum)", "value": "completely inhibit"}
    ]}
  ]
}
